Data reported in US20150148234A1, “HERBICIDE-RESISTANT SUNFLOWER PLANTS WITH MULTIPLE HERBICIDE RESISTANT ALLELES OF AHASL1 AND METHODS OF USE” (NIDERA S.A., priority 2013, published 2015).

Columns and labels:
[1] = system: F2 population from the cross GM40 (A122T)/HA425 (A205V); experiment: imazapyr challenge of segregating population (Example 1); format: in vivo, sunflower; details: 320 g a.i. ha-1; eighty F2 plants
Experimental: To determine the phenotypic interactions of the resistance gene A122T and the Imr1 gene (A205V) already described in IMI-R sunflowers (HA425), F1, F2 and BC1F1 populations from the cross GM40 (A122T)/HA425 (A205V) were evaluated at two herbicide applications rates (80 and 320 g. a. i. Ha^−1 of imazapyr). […] When F2 and BC1F1 populations were scored at the higher herbicide rate (320 g. a. i. Ha-1), which discriminates both parents, segregation for susceptibility was observed. Only two phenotypic classes could be detected, a resistant class with plants without any injury or slight symptoms and a susceptible phenotype that was killed like the control line HA425.
The AHASL1 gene in sunflower presents a simple sequence repeat (SSR) polymorphism which discriminates lines carrying the Imr1 allele from any other sunflower genotype (Kolkman et al. (2004) Theor. Appl. Genet. 109: 1147-1159). […] This length variant polymorphism detected in GM40 and HA425 was exploited to investigate the segregation in the F2 and BC1F1 populations derived from crossing both lines. […] The cosegregation of herbicide resistance phenotypes and AHASL1 haplotypes was further assessed on 50 BC1F1 progeny segregating for resistance. […]

[2] = system: sunflower line B770 (conventional); experiment: tolerance to imidazolinones, greenhouse (Example 8)
[3] = system: hybrids carrying the A205V mutation event (A205V/A205V, A205V/WT); experiment: field trial, imazapyr at V8 or R1 stage (Example 4); details: 160 g ai/ha applied at R1; 14 DAT
sunflower line L2, A205V = experiment: imazapyr whole plant greenhouse test (Example 2); format: in vivo
Experimental: (§1) Seeds were sown in Petri dishes and, after germination, plantlets were transplanted to pots of 10 cm of diameter in a potting media consisting of equal parts of vermiculite, soil and sand. Plants were grown in a greenhouse under natural light conditions supplemented with 400 W sodium halide lamps to provide a 16 hr daylength. Day/night temperatures were 25 and 20 ° C., respectively. At the V2-V4 stage (Schneiter & Miller (1981) Crop Sci. 21:901-903) 10 plants of each genotype were randomly assigned to each treatment consisting of eight imazapyr doses (0, 40, 80, 160, 240, 320, 400 and 480 g ai/ha, corresponding to untreated, 0.5×, 1×, 2×, 3×, 4×, 5× and 6×, respectively), and a zero-time biomass determination. Experiment was arranged as a randomized block design with a full factorial (sunflower line×treatment) arrangement of treatments and 10 replications.
(§2) On the day of herbicide application ten plants of each genotype were cut at the cotyledonal node and dried at 60° C. for 48 hrs for zero-time dried weight determination.
(§3) The remaining plants were maintained for 14 days after imazapyr treatment (DAT) and their height, Phytotoxicity Index (PI) and above ground dry biomass were determined Height was determined as the distance between the cotyledonal node and the apex of each plant. Above ground biomass data from each line were converted to biomass accumulation after application by subtracting the appropriate average zero- time biomass from each sample. Dry biomass data were converted to percentages of the untreated control plants within each line to allow direct comparisons between groups.

[4] = system: sunflower hybrid H3 (L3 × L2), A205V + A122T; experiment: imazapyr whole plant greenhouse test (Example 2); format: in vivo
Experimental: as §1, §2, §3

[5] = system: sunflower line BTK112 (conventional); experiment: tolerance to imidazolinones, greenhouse (Example 8)
[6] = system: sunflower hybrid H1 (L1*L2), 205/205; experiment: field trial, imazapyr at V8 or R1 stage (Example 4); details: H1 205/205
[7] = 160 gr/ha at V4, fourteen days after treatment

CC(C)C1(C)N=C(c2ncccc2C(=O)O)NC1=O (centres unmarked) [imazapyr]
plants killed by the herbicide (S) [1]: 22 plants
plants with no symptoms or a slight injury (R) [1]: 58 plants
outcome of the herbicide treatment ([2]; 160 gr/ha at V4): killed
Mean Phytotoxicity Index (0-9) [2, 7]: 8.7
PI (0-50), group with chlorosis, stunting and deformation [3]: greater than 35
Phytotoxicity Index (0-9) 14 days after treatment (sunflower line L2, A205V; dose 0.5 (0.5x, 40 g ai/ha)): 0
biomass accumulation 14 days after treatment, % of untreated (sunflower line L2, A205V; dose 0.5 (0.5x, 40 g ai/ha)): 99.2%
plant height 14 days after treatment, % of untreated (sunflower line L2, A205V; dose 0.5 (0.5x, 40 g ai/ha)): 99.2%
Phytotoxicity Index (0-9) 14 days after treatment (sunflower line L2, A205V; dose 1 (1x, 80 g ai/ha)): 0
biomass accumulation 14 days after treatment, % of untreated (sunflower line L2, A205V; dose 1 (1x, 80 g ai/ha)): 85.0%
plant height 14 days after treatment, % of untreated (sunflower line L2, A205V; dose 1 (1x, 80 g ai/ha)): 98.1%
Phytotoxicity Index (0-9) 14 days after treatment (sunflower line L2, A205V; dose 2 (2x, 160 g ai/ha)): 3.1
biomass accumulation 14 days after treatment, % of untreated (sunflower line L2, A205V; dose 2 (2x, 160 g ai/ha)): 58.1%
plant height 14 days after treatment, % of untreated (sunflower line L2, A205V; dose 2 (2x, 160 g ai/ha)): 63.6%
Phytotoxicity Index (0-9) 14 days after treatment (sunflower line L2, A205V; dose 3 (3x, 240 g ai/ha)): 3.9
biomass accumulation 14 days after treatment, % of untreated (sunflower line L2, A205V; dose 3 (3x, 240 g ai/ha)): 48.1%
plant height 14 days after treatment, % of untreated (sunflower line L2, A205V; dose 3 (3x, 240 g ai/ha)): 51.9%
Phytotoxicity Index (0-9) 14 days after treatment (sunflower line L2, A205V; dose 4 (4x, 320 g ai/ha)): 5.9
biomass accumulation 14 days after treatment, % of untreated (sunflower line L2, A205V; dose 4 (4x, 320 g ai/ha)): 28.8%
plant height 14 days after treatment, % of untreated (sunflower line L2, A205V; dose 4 (4x, 320 g ai/ha)): 27.5%
Phytotoxicity Index (0-9) 14 days after treatment (sunflower line L2, A205V; dose 5 (5x, 400 g ai/ha)): 6.9
biomass accumulation 14 days after treatment, % of untreated (sunflower line L2, A205V; dose 5 (5x, 400 g ai/ha)): 27.4%
plant height 14 days after treatment, % of untreated (sunflower line L2, A205V; dose 5 (5x, 400 g ai/ha)): 26.0%
Phytotoxicity Index (0-9) 14 days after treatment (sunflower line L2, A205V; dose 6 (6x, 480 g ai/ha)): 6.7
biomass accumulation 14 days after treatment, % of untreated (sunflower line L2, A205V; dose 6 (6x, 480 g ai/ha)): 24.9%
plant height 14 days after treatment, % of untreated (sunflower line L2, A205V; dose 6 (6x, 480 g ai/ha)): 29.3%
Phytotoxicity Index (0-9) 14 days after treatment ([4]; dose 0.5 (0.5x, 40 g ai/ha)): 0.5
biomass accumulation 14 days after treatment, % of untreated ([4]; dose 0.5 (0.5x, 40 g ai/ha)): 99.804%
plant height 14 days after treatment, % of untreated ([4]; dose 0.5 (0.5x, 40 g ai/ha)): 98.7%
Phytotoxicity Index (0-9) 14 days after treatment ([4]; dose 1 (1x, 80 g ai/ha)): 0.5
biomass accumulation 14 days after treatment, % of untreated ([4]; dose 1 (1x, 80 g ai/ha)): 100.0%
plant height 14 days after treatment, % of untreated ([4]; dose 1 (1x, 80 g ai/ha)): 97.0%
Phytotoxicity Index (0-9) 14 days after treatment ([4]; dose 2 (2x, 160 g ai/ha)): 0.5
biomass accumulation 14 days after treatment, % of untreated ([4]; dose 2 (2x, 160 g ai/ha)): 94.3%
plant height 14 days after treatment, % of untreated ([4]; dose 2 (2x, 160 g ai/ha)): 96.7%
Phytotoxicity Index (0-9) 14 days after treatment ([4]; dose 3 (3x, 240 g ai/ha)): 0.5
biomass accumulation 14 days after treatment, % of untreated ([4]; dose 3 (3x, 240 g ai/ha)): 90.8%
plant height 14 days after treatment, % of untreated ([4]; dose 3 (3x, 240 g ai/ha)): 93.8%
Phytotoxicity Index (0-9) 14 days after treatment ([4]; dose 4 (4x, 320 g ai/ha)): 0.5
biomass accumulation 14 days after treatment, % of untreated ([4]; dose 4 (4x, 320 g ai/ha)): 87.8%
plant height 14 days after treatment, % of untreated ([4]; dose 4 (4x, 320 g ai/ha)): 92.0%
Phytotoxicity Index (0-9) 14 days after treatment ([4]; dose 5 (5x, 400 g ai/ha)): 0.6
biomass accumulation 14 days after treatment, % of untreated ([4]; dose 5 (5x, 400 g ai/ha)): 72.1%
plant height 14 days after treatment, % of untreated ([4]; dose 5 (5x, 400 g ai/ha)): 65.4%
Phytotoxicity Index (0-9) 14 days after treatment ([4]; dose 6 (6x, 480 g ai/ha)): 1.0
biomass accumulation 14 days after treatment, % of untreated ([4]; dose 6 (6x, 480 g ai/ha)): 63.2%
plant height 14 days after treatment, % of untreated ([4]; dose 6 (6x, 480 g ai/ha)): 58.0%
outcome of the herbicide treatment ([5]; 160 gr/ha at V4): killed
Mean Phytotoxicity Index (0-9) [5, 7]: 9
Mean Phytotoxicity Index (0-50) ([6]; 160 g ai/ha applied at R1, 14 DAT): 35
Mean Phytotoxicity Index (0-50) ([6]; 160 g ai/ha applied at R1, 21 DAT): 37.7
Mean Phytotoxicity Index (0-50) ([6]; 160 g ai/ha applied at V8, 14 DAT): 6
Mean Phytotoxicity Index (0-50) ([6]; 160 g ai/ha applied at V8, 21 DAT): 3
